Key:
Keap1/Nrf2 = Keap1/Nrf2 (Homo sapiens, UniProt Q14145); experiment: Inhibition of His-tagged human Keap1 Kelch domain /FITC-labelled-9mer Nrf2 (unknown origin) protein-protein interaction incubated for 1 hr by fluorescence polarization assay
[1] = Apparent permeability in human Caco-2 cells incubated for 2 hrs by LC/MS analysis
[2] = Metabolic stability in human liver microsomes assessed as compound remaining at 5 uM measured upto 60 mins
in vivo = conditions: C57BL/6, mouse, po, 10 mg/kg
Description: Oral bioavailability in C57BL/6 mouse at 10 mg/kg

[3] = biological target: Voltage-gated inwardly rectifying potassium channel KCNH2 (Homo sapiens, UniProt Q12809); experiment: Inhibition of human ERG by patch clamp assay; format: toxicity
Voltage-gated inwardly rectifying potassium channel KCNH2, sequence (Q12809 whole entry): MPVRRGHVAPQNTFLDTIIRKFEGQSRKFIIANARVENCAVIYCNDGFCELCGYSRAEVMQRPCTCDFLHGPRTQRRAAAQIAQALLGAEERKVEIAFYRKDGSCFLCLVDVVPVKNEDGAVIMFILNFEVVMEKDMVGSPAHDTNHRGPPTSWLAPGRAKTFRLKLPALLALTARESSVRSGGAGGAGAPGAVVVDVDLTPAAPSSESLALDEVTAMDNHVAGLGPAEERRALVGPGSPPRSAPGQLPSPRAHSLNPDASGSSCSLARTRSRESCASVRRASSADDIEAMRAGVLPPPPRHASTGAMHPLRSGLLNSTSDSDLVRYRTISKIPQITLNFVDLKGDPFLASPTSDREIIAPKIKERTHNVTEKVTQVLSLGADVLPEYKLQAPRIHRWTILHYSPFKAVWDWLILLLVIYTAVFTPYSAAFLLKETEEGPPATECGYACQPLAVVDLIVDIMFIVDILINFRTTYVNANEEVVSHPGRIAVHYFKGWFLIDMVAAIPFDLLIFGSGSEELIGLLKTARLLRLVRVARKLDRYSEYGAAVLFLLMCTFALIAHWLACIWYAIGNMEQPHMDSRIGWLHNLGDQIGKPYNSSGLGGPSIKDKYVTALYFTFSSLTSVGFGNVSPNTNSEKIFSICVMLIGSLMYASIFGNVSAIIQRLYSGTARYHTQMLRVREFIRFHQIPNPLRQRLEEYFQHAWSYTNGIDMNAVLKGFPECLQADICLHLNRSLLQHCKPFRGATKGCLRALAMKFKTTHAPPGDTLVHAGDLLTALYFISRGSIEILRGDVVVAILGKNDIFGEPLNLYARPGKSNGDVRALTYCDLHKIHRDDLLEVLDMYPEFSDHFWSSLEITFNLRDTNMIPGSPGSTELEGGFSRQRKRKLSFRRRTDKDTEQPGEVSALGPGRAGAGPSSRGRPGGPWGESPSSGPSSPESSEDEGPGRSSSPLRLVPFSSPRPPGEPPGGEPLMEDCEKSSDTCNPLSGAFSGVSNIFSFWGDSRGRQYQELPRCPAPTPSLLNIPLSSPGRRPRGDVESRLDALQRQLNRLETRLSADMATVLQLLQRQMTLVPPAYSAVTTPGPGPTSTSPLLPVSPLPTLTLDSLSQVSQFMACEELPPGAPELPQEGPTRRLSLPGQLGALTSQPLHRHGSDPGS

Cytochrome P450 3A4 = Cytochrome P450 3A4 (Homo sapiens, UniProt P08684); experiment: Inhibition of CYP3A4 in human liver microsomes; format: ADME, Microsome
Cytochrome P450 3A4, sequence (P08684 whole entry): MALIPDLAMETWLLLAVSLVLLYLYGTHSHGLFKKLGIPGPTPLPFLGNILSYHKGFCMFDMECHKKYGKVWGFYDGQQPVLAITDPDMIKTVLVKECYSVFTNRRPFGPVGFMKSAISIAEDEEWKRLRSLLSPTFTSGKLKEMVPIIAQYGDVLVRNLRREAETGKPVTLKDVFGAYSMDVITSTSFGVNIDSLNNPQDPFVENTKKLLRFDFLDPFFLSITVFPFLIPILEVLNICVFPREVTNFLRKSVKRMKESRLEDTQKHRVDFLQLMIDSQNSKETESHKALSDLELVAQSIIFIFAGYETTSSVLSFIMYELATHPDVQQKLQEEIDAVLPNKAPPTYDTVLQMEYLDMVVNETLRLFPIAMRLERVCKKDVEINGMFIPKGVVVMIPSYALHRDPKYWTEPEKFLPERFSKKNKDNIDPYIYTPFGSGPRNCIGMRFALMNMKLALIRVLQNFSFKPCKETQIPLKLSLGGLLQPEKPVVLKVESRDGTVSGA

Cytochrome P450 1A2 = biological target: T1, Cytochrome P450 1A2 (Homo sapiens, UniProt P05177); experiment: Inhibition of CYP1A2 in human liver microsomes; format: ADME, Microsome
T1 sequence (P05177 whole entry): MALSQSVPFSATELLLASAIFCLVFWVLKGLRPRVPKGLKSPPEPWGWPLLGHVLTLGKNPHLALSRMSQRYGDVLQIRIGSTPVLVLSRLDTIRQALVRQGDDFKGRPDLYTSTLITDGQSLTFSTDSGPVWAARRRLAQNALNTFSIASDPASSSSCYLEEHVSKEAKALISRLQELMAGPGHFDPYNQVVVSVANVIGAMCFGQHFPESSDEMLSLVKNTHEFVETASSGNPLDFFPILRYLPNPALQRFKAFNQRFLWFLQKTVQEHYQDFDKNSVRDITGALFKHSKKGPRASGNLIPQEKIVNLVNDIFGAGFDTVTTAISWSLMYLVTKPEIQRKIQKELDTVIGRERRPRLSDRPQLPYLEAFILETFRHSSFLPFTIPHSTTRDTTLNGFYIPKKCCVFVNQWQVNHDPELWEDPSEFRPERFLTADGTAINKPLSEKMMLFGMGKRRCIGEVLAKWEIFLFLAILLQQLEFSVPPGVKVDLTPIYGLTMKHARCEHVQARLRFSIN

Cytochrome P450 2C8 = biological target: T2, Cytochrome P450 2C8 (Homo sapiens, UniProt P10632); experiment: Inhibition of CYP2C8 in human liver microsomes; format: ADME, Microsome
T2 sequence (P10632 whole entry): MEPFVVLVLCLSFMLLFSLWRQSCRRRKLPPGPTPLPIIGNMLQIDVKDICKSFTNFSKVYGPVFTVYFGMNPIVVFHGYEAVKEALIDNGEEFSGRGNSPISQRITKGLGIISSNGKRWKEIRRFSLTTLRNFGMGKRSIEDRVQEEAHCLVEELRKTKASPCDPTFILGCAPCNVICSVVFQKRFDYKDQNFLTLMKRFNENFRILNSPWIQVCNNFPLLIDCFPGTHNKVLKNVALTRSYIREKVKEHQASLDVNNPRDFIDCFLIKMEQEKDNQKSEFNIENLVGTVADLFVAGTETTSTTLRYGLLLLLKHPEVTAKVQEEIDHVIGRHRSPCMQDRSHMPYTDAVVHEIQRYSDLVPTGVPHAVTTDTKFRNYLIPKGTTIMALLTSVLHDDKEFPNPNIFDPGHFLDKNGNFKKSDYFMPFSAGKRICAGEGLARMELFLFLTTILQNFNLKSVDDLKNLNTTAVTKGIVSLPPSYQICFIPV

Cytochrome P450 2C9 = Cytochrome P450 2C9 (Homo sapiens, UniProt P11712); experiment: Inhibition of CYP2C9 in human liver microsomes; format: ADME, Microsome
Cytochrome P450 2C9, sequence (P11712 whole entry): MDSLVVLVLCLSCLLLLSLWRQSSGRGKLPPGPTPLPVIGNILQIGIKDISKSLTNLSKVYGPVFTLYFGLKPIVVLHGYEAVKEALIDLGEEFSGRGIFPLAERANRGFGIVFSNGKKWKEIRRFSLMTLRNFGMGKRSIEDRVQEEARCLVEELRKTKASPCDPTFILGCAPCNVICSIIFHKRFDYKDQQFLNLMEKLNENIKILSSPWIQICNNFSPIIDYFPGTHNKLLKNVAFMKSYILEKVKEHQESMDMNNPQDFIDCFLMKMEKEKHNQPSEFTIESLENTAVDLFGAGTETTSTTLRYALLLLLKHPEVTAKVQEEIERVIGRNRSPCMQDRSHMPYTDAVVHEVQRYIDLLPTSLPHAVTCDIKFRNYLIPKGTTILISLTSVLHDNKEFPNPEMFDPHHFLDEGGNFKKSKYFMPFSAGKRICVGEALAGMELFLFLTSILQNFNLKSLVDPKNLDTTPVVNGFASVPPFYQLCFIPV

Cytochrome P450 2C19 = Cytochrome P450 2C19 (Homo sapiens, UniProt P33261); experiment: Inhibition of CYP2C19 in human liver microsomes; format: ADME, Microsome
Cytochrome P450 2C19, sequence (P33261 whole entry): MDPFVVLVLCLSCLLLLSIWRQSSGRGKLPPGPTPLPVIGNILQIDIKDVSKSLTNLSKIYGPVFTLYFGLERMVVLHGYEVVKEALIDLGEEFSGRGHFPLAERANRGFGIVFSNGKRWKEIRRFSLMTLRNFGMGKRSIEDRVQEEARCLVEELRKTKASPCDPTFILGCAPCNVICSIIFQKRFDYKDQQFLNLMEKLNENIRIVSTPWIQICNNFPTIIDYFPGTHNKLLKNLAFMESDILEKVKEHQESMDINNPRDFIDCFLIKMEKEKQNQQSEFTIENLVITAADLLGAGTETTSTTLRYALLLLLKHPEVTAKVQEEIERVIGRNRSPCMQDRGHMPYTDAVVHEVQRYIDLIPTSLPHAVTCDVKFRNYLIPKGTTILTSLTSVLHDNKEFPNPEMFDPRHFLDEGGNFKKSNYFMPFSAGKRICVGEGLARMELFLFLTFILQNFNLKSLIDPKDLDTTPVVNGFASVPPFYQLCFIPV

Cytochrome P450 2D6 = Cytochrome P450 2D6 (Homo sapiens, UniProt P10635); experiment: Inhibition of CYP2D6 in human liver microsomes; format: ADME, Microsome
Cytochrome P450 2D6, sequence (P10635 whole entry, the tested form may be a part): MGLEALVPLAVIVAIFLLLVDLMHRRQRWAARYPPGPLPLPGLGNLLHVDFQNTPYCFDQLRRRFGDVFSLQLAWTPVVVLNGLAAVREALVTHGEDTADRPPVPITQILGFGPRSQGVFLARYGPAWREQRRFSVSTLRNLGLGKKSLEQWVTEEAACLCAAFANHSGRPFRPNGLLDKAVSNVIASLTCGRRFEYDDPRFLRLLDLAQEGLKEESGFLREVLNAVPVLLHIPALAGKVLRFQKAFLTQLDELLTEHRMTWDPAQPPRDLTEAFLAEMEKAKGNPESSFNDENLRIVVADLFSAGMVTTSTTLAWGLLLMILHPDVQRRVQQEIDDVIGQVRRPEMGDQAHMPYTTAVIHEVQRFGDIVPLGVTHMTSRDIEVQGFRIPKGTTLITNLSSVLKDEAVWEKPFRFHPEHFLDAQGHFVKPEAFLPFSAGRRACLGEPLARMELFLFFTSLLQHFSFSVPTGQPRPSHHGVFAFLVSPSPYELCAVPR

[4] = biological target: Kelch-like ECH-associated protein 1 (Homo sapiens, UniProt Q14145); experiment: Binding affinity to biotinylated Keap1 Kelch domain (unknown origin) by SPR method
Kelch-like ECH-associated protein 1, sequence (Q14145 whole entry, the tested form may be a part): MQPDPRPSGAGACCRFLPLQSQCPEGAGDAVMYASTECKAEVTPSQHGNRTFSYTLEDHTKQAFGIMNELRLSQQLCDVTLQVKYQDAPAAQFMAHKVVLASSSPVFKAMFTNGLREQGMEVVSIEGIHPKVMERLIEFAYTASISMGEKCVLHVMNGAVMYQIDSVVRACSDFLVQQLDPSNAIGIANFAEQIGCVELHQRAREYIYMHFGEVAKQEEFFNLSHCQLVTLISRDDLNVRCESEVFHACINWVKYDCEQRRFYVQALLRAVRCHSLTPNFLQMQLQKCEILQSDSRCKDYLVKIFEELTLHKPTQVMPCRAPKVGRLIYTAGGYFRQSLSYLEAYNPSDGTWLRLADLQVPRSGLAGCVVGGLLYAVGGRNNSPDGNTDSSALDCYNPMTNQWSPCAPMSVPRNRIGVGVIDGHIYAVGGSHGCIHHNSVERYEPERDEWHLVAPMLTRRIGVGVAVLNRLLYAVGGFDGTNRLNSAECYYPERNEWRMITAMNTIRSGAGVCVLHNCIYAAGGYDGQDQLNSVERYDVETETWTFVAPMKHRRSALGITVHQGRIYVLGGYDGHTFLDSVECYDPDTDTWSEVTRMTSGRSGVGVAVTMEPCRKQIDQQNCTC

Keap1/Nrf2, sequence (Q16236 whole entry, the tested form may be a part): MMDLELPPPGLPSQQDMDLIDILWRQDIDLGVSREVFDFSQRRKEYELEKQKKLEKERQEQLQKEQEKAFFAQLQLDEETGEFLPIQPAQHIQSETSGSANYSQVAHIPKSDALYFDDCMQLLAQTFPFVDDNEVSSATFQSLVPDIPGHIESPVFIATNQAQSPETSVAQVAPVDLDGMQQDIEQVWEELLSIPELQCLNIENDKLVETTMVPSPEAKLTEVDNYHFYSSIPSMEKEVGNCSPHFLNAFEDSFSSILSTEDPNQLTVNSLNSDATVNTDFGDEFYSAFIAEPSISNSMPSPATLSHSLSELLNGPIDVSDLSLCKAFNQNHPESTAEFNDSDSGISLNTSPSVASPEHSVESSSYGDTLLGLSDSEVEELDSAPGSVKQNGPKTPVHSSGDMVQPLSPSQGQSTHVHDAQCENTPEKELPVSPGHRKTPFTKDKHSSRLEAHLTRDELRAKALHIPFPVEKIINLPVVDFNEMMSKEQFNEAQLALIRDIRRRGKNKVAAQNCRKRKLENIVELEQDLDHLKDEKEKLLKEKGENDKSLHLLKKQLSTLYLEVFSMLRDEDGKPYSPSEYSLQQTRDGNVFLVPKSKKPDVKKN
Keap1/Nrf2, sequence (Q14145 whole entry, the tested form may be a part): as the sequence (Q14145 whole entry, the tested form may be a part) above

Compound | IC50 (Keap1/Nrf2) [µM] | Papp at 2 h [1] [×10⁻⁶ cm/s] | remaining at 1 h, 5 µM [2] [%] | also measured
Cc1ccc(CC(=O)N[C@H](c2ccc(C)c(OCC(C)(C)C#N)c2)[C@@H](C)C(=O)O)cc1 | 0.078 | 1.4 | 43 | –
COc1ccc(S(=O)(=O)Nc2ccc(N(CC(=O)N3CCSC3=O)S(=O)(=O)c3ccc(OC)cc3)c3ccccc23)cc1 | – | – | – | bioavailability (in vivo): 68%
Cc1ccc(CC(=O)N[C@H](c2ccc(C)c(OCC(C)(C)F)c2)[C@@H](C)C(=O)O)cc1 | 0.27 | 11 | 68 | –
CCOc1cccnc1Cc1ccc([C@H](F)C(=O)N[C@H](c2ccc(C)cc2)[C@@H](C)C(=O)O)cc1 | – | – | – | IC50 [3]: > 30 µM; IC50 (Cytochrome P450 3A4): > 10 µM; IC50 (Cytochrome P450 1A2): > 10 µM; IC50 (Cytochrome P450 2C8): > 10 µM; IC50 (Cytochrome P450 2C9): > 10 µM; IC50 (Cytochrome P450 2C19): > 10 µM; IC50 (Cytochrome P450 2D6): > 10 µM
Cc1ccc(CC(=O)N[C@H](c2ccc(C)c(OCc3ccccc3)c2)[C@@H](C)C(=O)O)cc1 | 13 | 21 | 74 | –
Cc1ccc(CC(=O)N[C@H](c2ccc(C)cc2)[C@@H](C)C(=O)O)cc1 | 20 | 8.8 | 97 | –
CCOc1cccnc1Cc1ccc(CC(=O)N[C@H](c2ccc(C)cc2)[C@@H](C)C(=O)O)cc1 | 0.045 | 8.9 | 84 | –
COc1cccnc1Cc1ccc(CC(=O)N[C@H](c2ccc(C)cc2)[C@@H](C)C(=O)O)cc1.Cl | 0.1 | 7.1 | 91 | –
Cc1ccc([C@@H](NC(=O)Cc2ccc(Cc3ncccc3C)cc2)[C@@H](C)C(=O)O)cc1.Cl | 0.14 | 11 | 93 | –
Cc1ccc([C@@H](NC(=O)Cc2ccc(Cc3cccc(C)n3)cc2)[C@@H](C)C(=O)O)cc1.Cl | 0.17 | 2 | 94 | –
Cc1ccc([C@@H](NC(=O)Cc2ccc(Cl)cc2)[C@@H](C)C(=O)O)cc1OCC(C)(C)C#N | 0.091 | 1.2 | 90 | –
CCCOc1cc([C@@H](NC(=O)Cc2ccc(C)cc2)[C@@H](C)C(=O)O)ccc1C | 9.6 | 18 | 57 | –
Cc1ccc([C@@H](NC(=O)Cc2ccc(Cn3cccn3)cc2)[C@@H](C)C(=O)O)cc1 | 0.64 | 1.1 | 95 | –
Cc1ccc(CC(=O)N[C@H](c2ccc(C)c(OCC(C)(C)O)c2)[C@@H](C)C(=O)O)cc1 | 4.2 | 0.31 | 100 | –
Cc1ccc(CC(=O)N[C@H](c2ccc(C)c(OCC3CCCC3)c2)[C@@H](C)C(=O)O)cc1 | 5 | 21 | – | –
Cc1ccc([C@@H](NC(=O)[C@@H](F)c2ccc3c(c2)CCCC3)[C@@H](C)C(=O)O)cc1 | 0.26 | 33 | – | Kd [4]: 0.13 µM
Cc1ccc([C@@H](NC(=O)Cc2ccc(Cc3ccccc3)cc2)[C@@H](C)C(=O)O)cc1 | 2 | 24 | 79 | –
Cc1ccc([C@@H](NC(=O)Cc2ccc(CC3CC3)cc2)[C@@H](C)C(=O)O)cc1 | 15 | 15 | 93 | –
Cc1ccc([C@@H](NC(=O)Cc2ccc(Cc3cc(C)ccn3)cc2)[C@@H](C)C(=O)O)cc1.Cl | 0.22 | 5.4 | 92 | –
Cc1ccc(CC(=O)N[C@H](c2ccc(C)c(OCC(C)C)c2)[C@@H](C)C(=O)O)cc1 | 3.6 | 26 | 73 | –
Cc1ccc([C@H](F)C(=O)N[C@H](c2ccc(C)c(OCC3(C#N)CC3)c2)[C@@H](C)C(=O)O)cc1 | – | – | – | IC50 [3]: > 30 µM; IC50 (Cytochrome P450 3A4): > 10 µM; IC50 (Cytochrome P450 1A2): > 10 µM; IC50 (Cytochrome P450 2C8): > 10 µM; IC50 (Cytochrome P450 2C9): > 10 µM; IC50 (Cytochrome P450 2C19): > 10 µM; IC50 (Cytochrome P450 2D6): > 10 µM
Cc1ccc([C@@H](NC(=O)Cc2ccc(Cc3ccccn3)cc2)[C@@H](C)C(=O)O)cc1.Cl | 0.36 | 5.7 | 94 | –
Cc1ccc([C@@H](NC(=O)Cc2ccc(CC3CCCCC3)cc2)[C@@H](C)C(=O)O)cc1 | 8.4 | 42 | 16 | –
Cc1ccc(CC(=O)N[C@H](c2ccc(C)c(OCC3(C#N)CC3)c2)[C@@H](C)C(=O)O)cc1 | 0.05 | 0.62 | 83 | –
Cc1ccc([C@@H](NC(=O)[C@@H](F)c2ccc(Cl)cc2)[C@@H](C)C(=O)O)cc1OCC(C)(C)C#N | – | – | – | IC50 [3]: > 30 µM; IC50 (Cytochrome P450 3A4): > 10 µM; IC50 (Cytochrome P450 1A2): > 10 µM; IC50 (Cytochrome P450 2C8): > 10 µM; IC50 (Cytochrome P450 2C9): 6.2 µM; IC50 (Cytochrome P450 2C19): > 10 µM; IC50 (Cytochrome P450 2D6): > 10 µM
Cc1ccc([C@@H](NC(=O)Cc2ccc(Cc3ccc(C)cn3)cc2)[C@@H](C)C(=O)O)cc1.Cl | 0.2 | 5.4 | 97 | –
Cc1ccc(CC(=O)N[C@H](c2ccc(C)c(OCC3CCCCC3)c2)[C@@H](C)C(=O)O)cc1 | 10 | 17 | – | –
Cc1ccc([C@@H](NC(=O)Cc2ccc(Cn3ccccc3=O)cc2)[C@@H](C)C(=O)O)cc1 | 0.92 | 0.16 | 98 | –
